The molecules below were run against human P2X3 receptor (Homo sapiens (Human), UniProt P56373) (assay: Evaluation of human P2X3 receptor inhibitory activity (Fluo-3 calcium fluorescence, FDSS 3000, ATP stimulation)). Conditions: C6BU-1 cells stably expressing human P2X3 receptor.
Format: cell-based
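Further: stimulus was 50 nM ATP with fluorescence followed for 3 min, and the response per well was peak post-ATP fluorescence divided by the reading at measurement start.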

Sequence of human P2X3 receptor (P56373 whole entry): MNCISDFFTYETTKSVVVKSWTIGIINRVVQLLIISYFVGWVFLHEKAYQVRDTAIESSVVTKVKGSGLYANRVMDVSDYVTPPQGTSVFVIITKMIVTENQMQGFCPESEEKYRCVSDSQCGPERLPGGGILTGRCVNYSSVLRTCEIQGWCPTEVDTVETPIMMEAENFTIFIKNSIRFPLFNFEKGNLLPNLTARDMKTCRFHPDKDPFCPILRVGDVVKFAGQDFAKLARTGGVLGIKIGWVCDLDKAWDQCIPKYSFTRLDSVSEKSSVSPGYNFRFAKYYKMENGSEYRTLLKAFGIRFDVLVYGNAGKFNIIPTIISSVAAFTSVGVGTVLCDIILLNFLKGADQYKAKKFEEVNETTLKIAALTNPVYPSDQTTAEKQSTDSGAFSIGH

Compound | IC50 [nM]
Cc1cc(/N=c2\[nH]c(=O)n(C(C)(C)CC(=O)O)c(=O)n2Cc2ccc(Cl)cc2)ccc1OC(C)C [Compound I-0804] | 132
Cc1ccc(Cn2c(=O)n([C@H](C)[C@H](C)C(=O)O)c(=O)[nH]/c2=N\c2ccc(OC(C)C)cc2)cc1 [Compound I-1336] | 71
CCn1c(=O)[nH]/c(=N\c2ccc(Oc3ccccc3C(N)=O)cc2)n(Cc2ccc(Cl)cc2)c1=O [Compound I-2009] | 472
COc1cc(/N=c2\[nH]c(=O)n(CC(C)(C)C(=O)O)c(=O)n2Cc2ccc(C)cc2)ccc1OC(C)C [Compound I-1280] | 27
NC(=O)Cn1c(=O)[nH]/c(=N\c2ccc(OC3CCC3)cc2)n(Cc2ccc(Cl)cc2)c1=O [Compound I-1946] | 25
CCn1c(=O)[nH]/c(=N\c2ccc(OCc3nnc(C)o3)cc2)n(Cc2ccc(Cl)cc2)c1=O [Compound I-2199] | 515
COCCOc1ccc(/N=c2\[nH]c(=O)n(C[C@H](C)C(=O)O)c(=O)n2Cc2ccc(Cl)cc2)cc1Cl [Compound I-0789] | 181
Cc1cc(/N=c2\[nH]c(=O)n([C@H]3CCOC3=O)c(=O)n2Cc2ccc(Cl)cc2)ccc1OC(C)C [Compound I-0775] | 41
COC(=O)CCCCn1c(=O)[nH]/c(=N\c2ccc(OC(C)C)c(Cl)c2)n(Cc2ccc(Cl)cc2)c1=O [Compound I-2182] | 3
COC(=O)[C@H](C)[C@H](C)n1c(=O)[nH]/c(=N\c2ccc(OC3CCC3)cc2)n(Cc2ccc(Cl)cc2)c1=O [Compound I-1378] | 12
COC(=O)c1cccc(Oc2ccc(/N=c3\[nH]c(=O)n(C)c(=O)n3Cc3ccc(C)cc3)cc2)c1 [Compound I-2031] | 52
CNC(=O)Cn1c(=O)[nH]/c(=N\c2ccc(Oc3ccnc(O)c3)cc2)n(Cc2ccc(Cl)cc2)c1=O [Compound I-1978] | 5
Cc1ccc(Cn2c(=O)n(CCC(=O)O)c(=O)[nH]/c2=N\c2cccc(C(F)(F)F)c2F)cc1 [Compound I-2086] | 234
O=C(O)CCn1c(=O)[nH]/c(=N\c2ccc(Oc3ccncc3)cc2)n(Cc2ccc(Cl)cc2)c1=O [Compound I-1207] | 15
COC(=O)[C@@H](C)[C@@H](C)n1c(=O)[nH]/c(=N\c2cccc(C(F)(F)F)c2)n(Cc2ccc(Cl)cc2)c1=O [Compound I-1317] | 105
Cc1ccc(Cn2c(=O)n(C[C@H](C)C(=O)O)c(=O)[nH]/c2=N\c2ccc(OC(C)C)c(C)c2)cc1 [Compound I-0680] | 26
Cc1oc2ccc(/N=c3\[nH]c(=O)n(CCCOC4CCCCO4)c(=O)n3Cc3ccc(Cl)cc3)cc2c1C (stereo not shown) [Compound I-2073] | 10
Cc1ccc(Cn2c(=O)n(CCC(=O)O)c(=O)[nH]/c2=N\c2ccc(OC(C)C)cc2C)cc1 [Compound I-2048] | 491
CCn1c(=O)[nH]/c(=N\c2ccc(Oc3cncc(C(=O)OC)c3)cc2)n(CC2CCC3(CC2)CC3)c1=O [Compound I-2173] | 12
CC(C)Oc1ccc(/N=c2\[nH]c(=O)n(CCC(=O)Nc3ccc(OC(C)C)c(Cl)c3)c(=O)n2CC2CCC3(CC2)CC3)cc1Cl [Compound I-1450] | 448
CC(C)Oc1ccc(/N=c2\[nH]c(=O)n(CC(=O)N3CCOCC3)c(=O)n2Cc2ccc(Cl)cc2)cc1Cl [Compound I-0739] | 29
COc1ccc2cc(/N=c3\[nH]c(=O)n(CCC(=O)O)c(=O)n3Cc3ccc(C)cc3)ccc2n1 [Compound I-2137] | 134
COc1cc(/N=c2\[nH]c(=O)n([C@@H](C)[C@@H](C)C(=O)O)c(=O)n2Cc2ccc(Cl)cc2)ccc1CC(C)C [Compound I-1366] | 20
COC(=O)C(C)(C)Cn1c(=O)[nH]/c(=N\c2cccc(C(F)(F)F)c2)n(Cc2ccc(C)cc2)c1=O [Compound I-1258] | 8
CCCc1ccc(/N=c2\[nH]c(=O)n(CCC(=O)O)c(=O)n2Cc2ccc(Cl)cc2)cc1C [Compound I-1253] | 281
CC(C)Oc1ccc(/N=c2\[nH]c(=O)n([C@H]3C[C@@H]3C(=O)O)c(=O)n2Cc2ccc(Cl)cc2)cc1F [Compound I-0675] | 37
Cc1ccc(Cn2c(=O)n(C)c(=O)[nH]/c2=N\c2ccc(Oc3ccnc(CO)c3)cc2)cc1 [Compound I-2056] | 26
CCCc1nc2ccc(/N=c3\[nH]c(=O)n(C[C@H](C)C(=O)OC)c(=O)n3Cc3ccc(Cl)cc3)cc2o1 [Compound I-1327] | 73

Same assay, conditions: C6BU-1 cells stably expressing human P2X3 receptor, Fluo-3 fluorescence, FDSS 3000

Compound | IC50 [nM]
CCc1oc2ccc(/N=c3\[nH]c(=O)n(CC(C)(C)C(=O)OC)c(=O)n3Cc3ccc(Cl)cc3)cc2c1C [Compound I-1574] | 18
CCOc1ccc(/N=c2\[nH]c(=O)n(C[C@@H](C)C(=O)OC)c(=O)n2Cc2ccc(C)cc2)cc1Cl [Compound I-1106] | 7
CCc1nc2ccc(/N=c3\[nH]c(=O)n(C[C@H](C)NC(C)=O)c(=O)n3Cc3ccc(Cl)cc3)cc2s1 [Compound I-1665] | 7
CCOC(=O)CCCn1c(=O)[nH]/c(=N\c2ccc3nc(CC)sc3c2)n(Cc2ccc(C)cc2)c1=O [Compound I-1629] | 4
Cc1ccc(Cn2c(=O)n(C[C@H](C)C(=O)O)c(=O)[nH]/c2=N\c2ccc(C3CCCC3)cc2)cc1 [Compound I-1113] | 123
CCOC(=O)CCn1c(=O)[nH]/c(=N\c2ccc(OC3CC3)c(Cl)c2)n(Cc2ccc(C)cc2)c1=O [Compound I-1606] | 15
CCc1nc2ccc(/N=c3\[nH]c(=O)n(CCO)c(=O)n3Cc3ccc(Cl)cc3)cc2s1 [Compound I-1663] | 8
Cc1cc(/N=c2\[nH]c(=O)n(C3CCN(CC(=O)O)CC3)c(=O)n2Cc2ccc(Cl)cc2)ccc1OC(C)C [Compound I-1649] | 285
COC(=O)[C@@H](C)Cn1c(=O)[nH]/c(=N\c2cccc(SC)c2)n(Cc2ccc(Cl)cc2)c1=O [Compound I-1151] | 46
C[C@@H](Oc1ccc(/N=c2\[nH]c(=O)n(CC(CO)CO)c(=O)n2Cc2ccc(Cl)cc2)cc1)C(F)(F)F [Compound I-1882] | 16
Cc1ccc(Cn2c(=O)n(C[C@H](C)C(=O)O)c(=O)[nH]/c2=N\c2ccc(C3=CCCCC3)cc2)cc1 [Compound I-1111] | 161

Same assay, conditions: human P2X3 receptor, Test Example 1

Compound | IC50 [nM]
COC(=O)CCn1c(=O)[nH]/c(=N\c2ccc(Oc3cccc(C#N)n3)cc2)n(Cc2ccc(Cl)cc2)c1=O [Compound I-2666] | 2
CC[C@@H](C)Oc1ccc(/N=c2\[nH]c(=O)n(C[C@H](C)C(=O)O)c(=O)n2Cc2ccc(C)cc2)cc1C [Compound I-0853] | 13
CCc1cc2cc(/N=c3\[nH]c(=O)n(CC4COC(C)(C)OC4)c(=O)n3Cc3ccc(Cl)cc3)ccc2o1 [Compound I-2312] | 5
C[C@H](C(N)=O)n1c(=O)[nH]/c(=N\c2ccc(Oc3ccon3)cc2)n(Cc2ccc(Cl)cc2)c1=O [Compound I-2500] | 67
CCn1c(=O)[nH]/c(=N\c2ccc(Oc3cccc(C#N)n3)c(OC)c2)n(Cc2ccc(Cl)cc2)c1=O [Compound I-2387] | 2
CCn1c(=S)[nH]/c(=N\c2ccc(Oc3cncc(C(=O)OC)c3)cc2)n(Cc2ccc(Cl)cc2)c1=O [Compound I-2262, 1-(4-chlorobenzyl)-3-ethyl-6-[4-(5-methoxycarbonyl-3-pyridyloxy)phenylimino]-4-thioxo-1,3,5-triazinane-2-one] | 17
CCOC(=O)CCn1c(=O)[nH]/c(=N\c2ccc(Oc3ncccn3)cc2)n(Cc2ccc(Cl)cc2)c1=O [Compound I-2550] | 4
CCn1c(=O)[nH]/c(=N\c2ccc(Oc3ccc(F)c(C(N)=O)c3)cc2)n(Cc2ccc(Cl)cc2)c1=O [Compound I-2235] | 4
CCn1c(=O)[nH]/c(=N\c2ccc(Oc3ccc(C(=O)O)nc3)cc2)n(C[C@H]2CC[C@H](C)CC2)c1=O [Compound I-2351] | 9
COC(=O)c1ccc(Oc2ccc(/N=c3\[nH]c(=O)n(C)c(=O)n3Cc3ccc(Cl)cc3)cc2)cn1 [Compound I-2402] | 3
NC(=O)Cn1c(=O)[nH]/c(=N\c2ccc(Oc3nccs3)cc2)n(Cc2ccc(Cl)cc2)c1=O [Compound I-2644] | 17
CCc1cc2cc(/N=c3\[nH]c(=O)n(CC(CO)CO)c(=O)n3Cc3ccc(Cl)cc3)ccc2o1 [Compound I-2313] | 8
CCn1c(=O)[nH]/c(=N\c2ccc(Oc3nccc(C(=O)O)n3)cc2)n(Cc2ccc(C)cc2)c1=O [Compound I-2404] | 16
CCCOc1ccc(/N=c2\[nH]c(=O)n(C(C)(C)CC(=O)O)c(=O)n2Cc2ccc(Cl)cc2)cc1 [Compound I-0829] | 216
CCOC(=O)Cn1c(=O)[nH]/c(=N\c2ccc(Oc3ccnnc3)cc2)n(Cc2ccc(Cl)cc2)c1=O [Compound I-2664] | 3
CCn1c(=O)[nH]/c(=N\c2ccc(Oc3nc(C(N)=O)cs3)cc2)n(Cc2ccc(Cl)cc2)c1=O [Compound I-2608] | 6
CC(C)Oc1ccc(/N=c2\[nH]c(=O)n(CC(C)(C)CC(=O)O)c(=O)n2Cc2ccc(Cl)cc2)cc1F [Compound I-0845] | 24
CCOC(=O)Cn1c(=O)[nH]/c(=N\c2ccc(Oc3cccnn3)cc2)n(Cc2ccc(Cl)cc2)c1=O [Compound I-2658] | 5
CCn1c(=O)[nH]/c(=N\c2ccc(Oc3cncc(C#N)c3)cc2)n(Cc2ccc(Cl)cn2)c1=O [Compound I-2318] | 18
CCn1c(=O)[nH]/c(=N\c2ccc(Oc3ccncc3)cc2)n(Cc2ccc(C)cc2)c1=O [Compound I-2573] | 6
CCn1c(=O)[nH]/c(=N\c2ccc(Oc3ncccc3C(N)=O)cc2)n(Cc2ccc(Cl)cc2)c1=O [Compound I-2365] | 211
CCn1c(=S)[nH]/c(=N\c2ccc(Oc3cncc(C(=O)O)c3)cc2)n(Cc2ccc(Cl)cc2)c1=O [Compound I-2263] | 4
CCn1c(=O)[nH]/c(=N\c2ccc(Oc3ccnc(NC(=O)OC(C)(C)C)c3)cc2)n(Cc2ccc(Cl)cc2)c1=O [Compound I-2304] | 29
CCn1c(=O)[nH]/c(=N\c2ccc(Oc3nc(C)c(C(=O)O)s3)cc2)n(C[C@H]2CC[C@H](C)CC2)c1=O [Compound I-2346] | 4
CCn1c(=O)[nH]/c(=N\[C@H]2CC[C@H](Oc3ccnc(C(=O)NC)c3)CC2)n(Cc2ccc(Cl)cc2)c1=O [Compound I-2246] | 790

— US9718790B2, “Triazine derivative and pharmaceutical composition having an analgesic activity comprising the same” (SHIONOGI & CO., LTD., priority 2010, dated 2017)
